Converted amounts (≈) assume the structure as drawn.
Tests used:
[1] = Determination of logD (1-octanol / phosphate buffer pH 7.4); assay type: physicochemical; conditions: 1-octanol/phosphate buffer, pH 7.4, pH 7.4, 1-octanol/phosphate buffer; read-out: Log D, pH 7.4
Protocol: Preparation of phosphate buffer saturated with 1-octanol: 10 mL of 100 mM phosphate buffer (pH 7.4) was added to 100 mL of 1-octanol. The mixture was shaken vigorously and left to stand at room temperature overnight.
Preparation of 1-octanol saturated with phosphate buffer: 10 mL of 1-octanol was added to 100 mL of 100 mM phosphate buffer (pH 7.4). The mixture was shaken vigorously and left to stand at room temperature overnight.
149 μL of phosphate buffer saturated with 1-octanol was added into 1st sample tube. 149 μL of 1-octanol saturated with phosphate buffer was added into the 2nd sample tube. The sample tubes were mixed vigorously and shaken for 1 hour at a speed of 800 rpm at room temperature. The sample tubes were subjected to centrifugation at 4000 rpm for 5 minutes at room temperature. Samples of the supernatant were taken from both tubes, diluted with an appropriate LCMS buffer, and analyzed on an LCMS instrument. LogD was calculated according to the following equation.

[2] = Determination of kinetic solubility (pH 7.4); assay type: physicochemical; conditions: phosphate buffer, pH 7.4, aqueous buffer, kinetic from dmso stock, 50 mM phosphate buffer pH 7.4, read-out: Ksol, pH 7.4
Protocol: 490 μL of a 50 mM phosphate buffer (pH 7.4) was added to the sample solution. The mixture was vortexed for at least 2 minutes. The vial was shaken on a Barnstead shaker at 800 rpm at room temperature for 2 hours. The vial was centrifuged at 4000 rpm for 20 minutes. The Mini-UniPrep vial was compressed to prepare a filtrate, which was injected into an HPLC-UV and LC-MS/MS system. Kinetic solubility was calculated by referencing sample peak areas to a standard calibration curve.

[3] = molecular target: KRAS G12C (GMPPNP-loaded) and cRAF (Ras-binding domain) interaction (Homo sapiens (Human), UniProt P01116, C118S/C51S/C80L/G12C); test: Inhibition of KRAS G12C and cRAF binding (AlphaScreen); conditions: KRAS G12C loaded with GMPPNP, cRaf RBD, 2 hours preincubation; read-out: Raf-1 RBD K-Ras IC50
Summary of the method: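 GMPPNP-loaded KRAS G12C in 25 mM Hepes pH 7.4, 150 mM NaCl, 5 mM MgCl2, 0.01% Triton X-100, 10 μM GMPPNP, 2% DMSO, preincubated with compound 2 h at room temperature. cRAF RBD plus AlphaScreen beads then added for 60-90 min; signal read at 570 nm.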

Sequence of KRAS G12C (GMPPNP-loaded) and cRAF (Ras-binding domain) interaction (P01116 other isoform, or with tags, fused parts or gaps G12C/C51S/C80L/C118S): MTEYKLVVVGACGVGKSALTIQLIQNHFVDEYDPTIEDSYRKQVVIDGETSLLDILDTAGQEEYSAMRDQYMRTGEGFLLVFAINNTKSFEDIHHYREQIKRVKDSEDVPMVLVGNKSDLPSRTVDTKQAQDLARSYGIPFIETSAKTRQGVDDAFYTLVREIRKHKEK

Row | SMILES | logD [1] | solubility kinetic at 2 h [2] [µg/mL] | IC50 [3] [nM]
1 | C[C@@H]1CN(C/C=C/C(=O)N2CCN(c3nc(OC[C@@]45CCCN4C[C@H](F)C5)nc4c(F)c(-c5cccc(Cl)c5C(F)(F)F)ncc34)C[C@@H]2CC#N)C[C@H](C)O1 [Compound 306] | 3.5 | 128 (≈ 163 µM) | 10 to 100
2 | CN(C)C/C=C/C(=O)N1CCN(c2nc(OC[C@@]34CCCN3C[C@H](F)C4)nc3c(F)c(-c4cccc(Cl)c4C(F)(F)F)ncc23)C[C@@H]1CC#N [Compound 114, 2-((S)-4-(7-(3-chloro-2-(trifluoromethyl)phenyl)-8-fluoro-2-(((2R,7aS)-2-fluorotetrahydro-1H-pyrrolizin-7a(5H)-yl)methoxy)pyrido[4,3-d]pyrimidin-4-yl)-1-((E)-4-(dimethylamino)but-2-enoyl)piperazin-2-yl)acetonitrile] | 2.35 | 121 (≈ 168 µM) | < 10
3 | Cc1nccc(/C=C/C(=O)N2CCN(c3nc(OC[C@@]45CCCN4C[C@H](F)C5)nc4c(F)c(-c5nc(N)cc(C)c5C(F)(F)F)ncc34)C[C@@H]2CC#N)n1 [Compound 145] | 2.11 | 136 (≈ 181 µM) | < 10
4 | N#CC[C@H]1CN(c2nc(OCC34CCCN3CCC4)nc3c(F)c(-c4cccc5ccc(F)c(Cl)c45)ncc23)CCN1C(=O)/C=C/CN1C[C@@H]2C[C@H]1CO2 [Compound 182] | 1.44 | 119 (≈ 158 µM) | < 10
5 | N#CC[C@H]1CN(c2nc(OC[C@@]34CCCN3C[C@H](F)C4)nc3c(F)c(-c4cccc(Cl)c4C(F)(F)F)ncc23)CCN1C(=O)/C=C/CN1CC[C@H](F)C1 [Compound 310] | 3.13 | 123 (≈ 161 µM) | 10 to 100
6 | N#CC[C@H]1CN(c2nc(OC[C@@]34CCCN3C[C@H](O)C4)nc3c2CCN(c2cccc4cccc(Cl)c24)C3)CCN1C(=O)/C=C/CN1CCOCC1 [Compound 316] | 2.66 | 124 (≈ 170 µM) | < 10
7 | Cc1noc(/C=C/C(=O)N2CCN(c3nc(OCC45CCCN4CCC5)nc4c(F)c(-c5cccc6cccc(Cl)c56)ncc34)C[C@@H]2CC#N)n1 [Example 5, (S,E)-2-(4-(7-(8-chloronaphthalen-1-yl)-8-fluoro-2-((tetrahydro-1H-pyrrolizin-7a(5H)-yl)methoxy)pyrido[4,3-d]pyrimidin-4-yl)-1-(3-(3-methyl-1,2,4-oxadiazol-5-yl)acryloyl)piperazin-2-yl)acetonitrile] | 2.15 | 161 (≈ 227 µM) | 10 to 100
8 | N#CC[C@H]1CN(c2nc(OC[C@@]34CCCN3C[C@H](O)C4)nc3c(F)c(-c4cccc5ccc(F)c(Cl)c45)ncc23)CCN1C(=O)/C=C/CN1CCOCC1 [Compound 321] | 1.52 | 162 (≈ 214 µM) | < 10
9 | C[C@@H]1CN(C/C=C/C(=O)N2CCN(c3nc(OC[C@@]45CCCN4C[C@H](F)C5)nc4c(F)c(-c5cccc6ccc(F)c(F)c56)ncc34)C[C@@H]2CC#N)C[C@@H](C)O1 [Compound 241] | 2.94 | 60.1 (≈ 77.7 µM) | 10 to 100
10 | Cc1c(F)ccc2cccc(-c3ncc4c(N5CCN(C(=O)/C=C/CN6CC7CC(C6)O7)[C@@H](CC#N)C5)nc(OC[C@@]56CCCN5C[C@H](F)C6)nc4c3F)c12 [Compound 247] | 3.02 | 88.6 (≈ 118 µM) | < 10
11 | N#CC[C@H]1CN(c2nc(OC[C@@]34CCCN3C[C@H](F)C4)nc3c(F)c(-c4cccc(Cl)c4C4CC4)ncc23)CCN1C(=O)/C=C/CN1C2COCC1C2 [Compound 278] | 3.3 | 66.6 (≈ 89.4 µM) | < 10
12 | N#CC[C@H]1CN(c2nc(OC[C@@]34CCCN3C[C@H](F)C4)nc3c(F)c(-c4cccc5cccc(Cl)c45)ncc23)CCN1C(=O)/C=C/CN1C[C@H]2CC[C@@H]1CO2 [Compound 258] | 2.81 | 169 (≈ 219 µM) | < 10
13 | C#Cc1c(F)ccc2cccc(-c3ncc4c(N5CCN(C(=O)/C=C/CN6[C@@H]7CC[C@H]6COC7)[C@@H](CC#N)C5)nc(OC[C@@]56CCCN5C[C@H](F)C6)nc4c3F)c12 [Compound 107, 2-((S)-1-((E)-4-((1R,5S)-3-oxa-8-azabicyclo[3.2.1]octan-8-yl)but-2-enoyl)-4-(7-(8-ethynyl-7-fluoronaphthalen-1-yl)-8-fluoro-2-(((2R,7aS)-2-fluorotetrahydro-1H-pyrrolizin-7a(5H)-yl)methoxy)pyrido[4,3-d]pyrimidin-4-yl)piperazin-2-yl)acetonitrile] | 2.93 | 132 (≈ 170 µM) | < 10
14 | CCc1c(F)ccc2cccc(-c3ncc4c(N5CCN(C(=O)/C=C/CN6CC7CC(C6)O7)[C@@H](CC#N)C5)nc(OC[C@@]56CCCN5C[C@H](F)C6)nc4c3F)c12 [Compound 242] | 3.38 | 93.3 (≈ 122 µM) | < 10
15 | N#CC[C@H]1CN(c2nc(OC[C@@]34CCCN3C[C@H](F)C4)nc3c2CCN(c2cccc4cccc(Cl)c24)C3)CCN1C(=O)/C=C/c1nc(C2COC2)no1 [Example 7, 2-((S)-4-(7-(8-chloronaphthalen-1-yl)-2-(((2R,7aS)-2-fluorohexahydro-1H-pyrrolizin-7a-yl)methoxy)-5,6,7,8-tetrahydropyrido[3,4-d]pyrimidin-4-yl)-1-((E)-3-(3-(oxetan-3-yl)-1,2,4-oxadiazol-5-yl)acryloyl)piperazin-2-yl)acetonitrile] | 2.69 | 0.01 (≈ 0.0133 µM) | < 10
16 | N#CC[C@H]1CN(c2nc(OCC34CCCN3CCC4)nc3c2CCN(c2ccccc2C(F)F)C3)CCN1C(=O)/C=C/CN1CCOCC1 [Compound 61] | 1.22 | 88.7 (≈ 131 µM) | > 500
17 | Cc1nccc(/C=C/C(=O)N2CCN(c3nc(OC[C@@]45CCCN4C[C@H](F)C5)nc4c(F)c(-c5cccc6ccc(F)c(C)c56)ncc34)C[C@@H]2CC#N)n1 [Compound 254] | 3.79 | 4.99 (≈ 6.8 µM) | < 10
18 | N#CC[C@H]1CN(c2nc(OC[C@@]34CCCN3C[C@H](F)C4)nc3c(F)c(-c4cccc(Cl)c4C(F)(F)F)ncc23)CCN1C(=O)/C=C/CN1C[C@H]2C[C@@H]1CO2 [Compound 294] | 2.59 | 127 (≈ 165 µM) | < 10
19 | N#CC[C@H]1CN(c2nc(OC[C@@]34CCCN3C[C@H](F)C4)nc3c(F)c(-c4cccc(Cl)c4C(F)(F)F)ncc23)CCN1C(=O)/C=C/CN1C[C@@H]2C[C@H]1CO2 [Compound 293] | 2.54 | 96.7 (≈ 125 µM) | < 10
20 | CCc1c(F)ccc2cccc(-c3ncc4c(N5CCN(C(=O)/C=C/CN6[C@@H]7CC[C@H]6COC7)[C@@H](CC#N)C5)nc(OC[C@@]56CCCN5C[C@H](F)C6)nc4c3F)c12 [Compound 99, 2-((S)-1-((E)-4-((1R,5S)-3-oxa-8-azabicyclo[3.2.1]octan-8-yl)but-2-enoyl)-4-(7-(8-ethyl-7-fluoronaphthalen-1-yl)-8-fluoro-2-(((2R,7aS)-2-fluorotetrahydro-1H-pyrrolizin-7a(5H)-yl)methoxy)pyrido[4,3-d]pyrimidin-4-yl)piperazin-2-yl)acetonitrile] | 3.4 | 78 (≈ 99.8 µM) | < 10
21 | N#CC[C@H]1CN(c2nc(OC[C@@]34CCCN3C[C@H](F)C4)nc3c(F)c(-c4nc(N)cc5cccc(F)c45)ncc23)CCN1C(=O)/C=C/CN1CCOCC1 [Compound 60] | 1.08 | 94.8 (≈ 128 µM) | < 10
22 | N#CC[C@H]1CN(c2nc(OC[C@@]34CCCN3C[C@H](F)C4)nc3c(F)c(-c4cccc5ccc(F)c(Cl)c45)ncc23)CCN1C(=O)/C=C/CN1CCOC2CC21 (stereo partly drawn) [Compound 160] | 3.33 | 86.8 (≈ 112 µM) | < 10
23 | N#CC[C@H]1CN(c2nc(OC[C@@]34CCCN3C[C@H](F)C4)nc3c(F)c(-c4cccc(Cl)c4C(F)F)ncc23)CCN1C(=O)/C=C/CN1[C@@H]2CC[C@H]1COC2 [Compound 275] | 2.73 | 106 (≈ 137 µM) | < 10
24 | CC(C)c1noc(/C=C/C(=O)N2CCN(c3nc(OC[C@@]45CCCN4C[C@H](F)C5)nc4c(F)c(-c5ccccc5C(F)F)ncc34)C[C@@H]2CC#N)n1 [Compound 152] | 2.62 | 126 (≈ 175 µM) | > 500
25 | N#CC[C@H]1CN(c2nc(OC[C@@]34CCCN3C[C@H](F)C4)nc3c(F)c(-c4cccc(F)c4C(F)(F)F)ncc23)CCN1C(=O)/C=C/CN1[C@@H]2CC[C@H]1COC2 [Compound 292] | 2.54 | 112 (≈ 145 µM) | < 10

From US20250129103A1, “METHODS FOR TREATMENT OF CANCER” (Frontier Medicines Corporation, priority 2022, published 2025)
